Measurements reported in US7135501B2, “Clusianon isomers and use thereof” (priority 2001, dated 2006).

How the values were obtained:
[1] = test system: tumor cell lines, resistant subclones and non-tumor cell lines; experiment: SRB assay, comparison across the cell line panel; type: cell-based
Method: Six unambiguously characterized tumor cell lines of human origin (native cell lines and those converted into resistant subclones) and two non-tumor cell lines are used for further investigations (table 2).
The sensitivity of the cell lines to the substance (I) is determined in a so-called sulforhodamine B (SRB) assay. This is a robust and highly reproducible standard method which is also established for example at the NCI (National Cancer Institute, USA) (Skehan et al. 1990).
The concentration of substance (I) which inhibits cell growth by 50% (IC50, determined from semilogarithmic dose versus effect plots) are indicated.

topoisomerase I = target: T1, topoisomerase I (Homo sapiens, UniProt P11387); experiment: Topo I unwinding assay; type: biochemical; conditions: for concentration required for topoisomerase I inhibition as multiple of the IC50 of tumor cell growth: in vitro
T1 construct: 160 ng of cell nucleus extract with the topoisomerase I present therein; endogenous in cells
T1 sequence (P11387 1-765): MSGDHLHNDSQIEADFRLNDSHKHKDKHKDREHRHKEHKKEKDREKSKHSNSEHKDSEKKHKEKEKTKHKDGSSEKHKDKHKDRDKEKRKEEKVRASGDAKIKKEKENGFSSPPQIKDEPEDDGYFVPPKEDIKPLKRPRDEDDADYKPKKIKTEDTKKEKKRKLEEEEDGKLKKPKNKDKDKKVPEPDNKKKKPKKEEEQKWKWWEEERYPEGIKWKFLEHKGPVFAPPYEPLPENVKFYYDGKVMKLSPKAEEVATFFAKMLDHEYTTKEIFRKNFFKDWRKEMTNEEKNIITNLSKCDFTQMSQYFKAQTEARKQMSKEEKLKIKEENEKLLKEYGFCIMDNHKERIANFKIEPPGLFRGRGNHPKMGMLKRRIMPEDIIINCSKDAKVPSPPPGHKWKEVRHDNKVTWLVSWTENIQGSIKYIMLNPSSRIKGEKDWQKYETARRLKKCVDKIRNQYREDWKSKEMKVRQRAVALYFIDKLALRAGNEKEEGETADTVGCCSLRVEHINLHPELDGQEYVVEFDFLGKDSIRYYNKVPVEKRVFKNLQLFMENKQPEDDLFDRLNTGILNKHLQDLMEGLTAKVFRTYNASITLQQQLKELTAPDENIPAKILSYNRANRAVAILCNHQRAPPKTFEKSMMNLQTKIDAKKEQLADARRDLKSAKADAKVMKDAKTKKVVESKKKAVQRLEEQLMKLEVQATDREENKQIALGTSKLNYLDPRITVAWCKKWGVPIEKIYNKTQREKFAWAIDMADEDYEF
From the text: The assay is based on an ATP-independent unwinding of twisted pBR322 plasmid DNA dimers by topoisomerase I. The two different topological forms of the plasmid DNA, the twisted form and unwound, relaxed form, are separated in this investigation by means of an agarose gel. The enzyme topoisomerase I is obtained for this purpose from cell nucleus extracts of the tumor cell lines.
Cell nucleus extracts are obtained by the method of Sullivan with the modifications of Danks et al.

[2] = test system: HCT8 WT bowel cancer cells; experiment: Cell cycle analysis (BrdU/PI flow cytometry); type: cell-based, human; conditions: IC50 concentration, 24 hours
Method: Flow cytometric investigations by an adapted method of Tsugita M. et al. are used for the analysis.
Exponentially growing HCT8 WT bowel cancer cells are treated with substance (I) with the determined IC50 concentration for 24 hours, and then the cells are incubated with BrdU. The cells fixed with methanol are subjected to a treatment with a detergent (Triton X-100/HCl) in order to denature the DNA strands. After incubation with the fluorescence-labeled antibody (anti-BrdU mAb, FITC-labeled), the second fluorescent dye (PI, propidium iodide) is added.
The DNA content (propidium iodide fluorescence) and the amount of BrdU taken up (FITC fluorescence) are determined using a Coulter flow cytometer (Coulter EPICS XL). Exemplary results are depicted in FIGS. 3a and 3b.
FIGS. 3a and 3b show BrdU and PI uptakes into the DNA of HCT8 WT cells, untreated (control, […]) and treated with substance (I) (IC50, 24 hours, […]). The depicted results are representative of n=3 independent experiments.

H460 WT cells = experiment: DNA double-strand breaks in [14C]d-thymidine-labeled cells, H460 WT; type: cell-based, human; conditions: up to 10 times the IC50 concentration, 6 hours
Method: (§1) DNA isolated after treatment of the cells for various times with substance (I) is for this purpose analyzed by gel electrophoresis.
(§2) Determination of the DNA double-strand breaks is performed on ^14C-labeled DNA. For this purpose, [^14C]d-thymidine-labeled cells are treated with various concentrations of substance (I). The DNA is isolated by an adapted method of Chia Chiao et al.
(§3) The DNA fractionated by gel electrophoresis is subsequently stained with ethidium bromide.
(§4) On a transilluminator (302 nm), the intact DNA which has not migrated in the electric field is separated from the fragmented DNA, which has thus migrated into the gel, by extraction. The isolated gel and DNA fragments are liquefied at +80° C. in the presence of hydrochloric acid. After addition of a scintillator it is possible to determine the radioactivity using a liquid scintillation meter (TPI-CARB 2100RT). The measured radioactivity is indicated in […] (cpm).
The results represent averages and their standard deviation from n=3 independent experiments.

HT29 WT = experiment: DNA double-strand breaks, HT29 WT; type: cell-based, human
Method: as §1, §2, §3, §4

DNA polymerase = DNA polymerase (Thermus aquaticus, UniProt P19821); experiment: Preliminary experiment with the TSR8 template; type: biochemical; conditions: maximum concentration 50 μg/ml
Method: In order to ensure the effect of substance (I) on telomerase, an effect of substance (I) on DNA polymerase must be ruled out. In a preliminary experiment with TSR8 as internal control, the effect of substance (I) at various concentration levels was ruled out.
Amplification of the TSR8 template depends only on DNA polymerase. Every inhibitor of this enzyme can be detected using the substrate.
The experiment is carried out in triplicates.

human telomerase = target: T2, human telomerase (Homo sapiens, UniProt O14746); experiment: Telomeric Repeat Amplification Assay (TRAP) ELISA; type: biochemical; conditions: at 50 μg/ml; telomerase from HCT8 WT colon carcinoma cells
T2 construct: human telomerase obtained from cells of a colon carcinoma (HCT8 WT); endogenous in cells; host or cells: HCT8 WT colon carcinoma cells
Method: The effect of substance (I) on human telomerase is determined by carrying out the so-called Telomeric Repeat Amplification Assay (TRAP) ELISA, based on the method of N. W. Kim et al.
This method is based on use of the polymerase chain reaction (PCR). This entails, in a first step, a number of (GGTTAG) motifs being attached by means of the telomerase activity to the 3′ end of a biotin-labeled oligonucleotide (TS=telomerase substrate). In a second step, the products extended in this way are amplified by the PCR technique using TS and RP (R=reverse) primers. In this way, a “ladder” of products in increments of 6 bases (initial size=50 nucleo-tides) is generated. During the amplification, DNP-labeled dCTP is incorporated into the PCR products. Detection and quantification of the synthesized telomerase products using a sandwich ELISA method are a measure of the telomerase enzymatic activity.
The telomerase products carry the biotin-labeled TS primers and bind to the surface of microtiter plates previously coated with streptavidin. An anti-DIG antibody conjugated to POD binds to the […] nucleotides incorporated during the amplification. After addition of the substrate TMB, the telomerase activity is visualized by […] via the onset of the color reaction by the enzyme POD. In this case, the measured absorption is directly proportional to the telomerase activity. […]

ERK1/2 protein = experiment: Western blot analysis of ERK1/2 phosphorylation; type: cell-based, human; conditions: HCT8 WT, detectable even at IC50 dose
From the text: Phosphorylation of certain signal transduction pathways plays an essential role in the regulation of cell growth and gene expression. The protein ERK1/2 (MAP kinase) belongs to the MAP kinase signal transduction pathway.
Treatment of human colon carcinoma cells (HCT8 WT) with substance (I) leads to phosphorylation of this protein, which is detected in a Western blot analysis (FIG. 8).

HCT8 WT cells = experiment: Coincubation cytotoxicity experiment with a specific ERK1/2 inhibitor; type: cell-based, human; conditions: 24 hours, different dosage ratios
Method: HCT8 WT cells were coincubated.

DNA polymerase, sequence (P19821 whole entry): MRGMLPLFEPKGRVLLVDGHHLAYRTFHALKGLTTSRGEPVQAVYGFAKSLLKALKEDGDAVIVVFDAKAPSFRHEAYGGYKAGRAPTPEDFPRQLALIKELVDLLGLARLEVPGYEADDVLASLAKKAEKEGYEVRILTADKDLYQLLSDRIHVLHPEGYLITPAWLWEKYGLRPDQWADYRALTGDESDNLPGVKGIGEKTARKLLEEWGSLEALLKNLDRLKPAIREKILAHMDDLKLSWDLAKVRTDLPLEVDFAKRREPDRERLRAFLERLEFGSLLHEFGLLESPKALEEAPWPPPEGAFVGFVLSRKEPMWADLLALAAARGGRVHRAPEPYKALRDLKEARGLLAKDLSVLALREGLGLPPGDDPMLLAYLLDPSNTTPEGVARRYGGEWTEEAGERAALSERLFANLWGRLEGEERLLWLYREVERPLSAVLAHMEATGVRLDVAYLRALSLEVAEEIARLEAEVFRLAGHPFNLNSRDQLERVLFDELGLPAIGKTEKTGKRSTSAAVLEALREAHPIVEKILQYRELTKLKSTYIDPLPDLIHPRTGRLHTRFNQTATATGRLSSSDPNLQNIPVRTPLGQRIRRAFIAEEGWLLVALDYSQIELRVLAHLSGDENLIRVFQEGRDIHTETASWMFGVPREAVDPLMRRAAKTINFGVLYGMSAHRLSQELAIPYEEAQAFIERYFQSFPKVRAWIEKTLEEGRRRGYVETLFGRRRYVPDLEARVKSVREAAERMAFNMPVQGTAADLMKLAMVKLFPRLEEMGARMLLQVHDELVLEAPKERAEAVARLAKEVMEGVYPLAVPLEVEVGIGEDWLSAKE
T2 sequence (O14746 whole entry): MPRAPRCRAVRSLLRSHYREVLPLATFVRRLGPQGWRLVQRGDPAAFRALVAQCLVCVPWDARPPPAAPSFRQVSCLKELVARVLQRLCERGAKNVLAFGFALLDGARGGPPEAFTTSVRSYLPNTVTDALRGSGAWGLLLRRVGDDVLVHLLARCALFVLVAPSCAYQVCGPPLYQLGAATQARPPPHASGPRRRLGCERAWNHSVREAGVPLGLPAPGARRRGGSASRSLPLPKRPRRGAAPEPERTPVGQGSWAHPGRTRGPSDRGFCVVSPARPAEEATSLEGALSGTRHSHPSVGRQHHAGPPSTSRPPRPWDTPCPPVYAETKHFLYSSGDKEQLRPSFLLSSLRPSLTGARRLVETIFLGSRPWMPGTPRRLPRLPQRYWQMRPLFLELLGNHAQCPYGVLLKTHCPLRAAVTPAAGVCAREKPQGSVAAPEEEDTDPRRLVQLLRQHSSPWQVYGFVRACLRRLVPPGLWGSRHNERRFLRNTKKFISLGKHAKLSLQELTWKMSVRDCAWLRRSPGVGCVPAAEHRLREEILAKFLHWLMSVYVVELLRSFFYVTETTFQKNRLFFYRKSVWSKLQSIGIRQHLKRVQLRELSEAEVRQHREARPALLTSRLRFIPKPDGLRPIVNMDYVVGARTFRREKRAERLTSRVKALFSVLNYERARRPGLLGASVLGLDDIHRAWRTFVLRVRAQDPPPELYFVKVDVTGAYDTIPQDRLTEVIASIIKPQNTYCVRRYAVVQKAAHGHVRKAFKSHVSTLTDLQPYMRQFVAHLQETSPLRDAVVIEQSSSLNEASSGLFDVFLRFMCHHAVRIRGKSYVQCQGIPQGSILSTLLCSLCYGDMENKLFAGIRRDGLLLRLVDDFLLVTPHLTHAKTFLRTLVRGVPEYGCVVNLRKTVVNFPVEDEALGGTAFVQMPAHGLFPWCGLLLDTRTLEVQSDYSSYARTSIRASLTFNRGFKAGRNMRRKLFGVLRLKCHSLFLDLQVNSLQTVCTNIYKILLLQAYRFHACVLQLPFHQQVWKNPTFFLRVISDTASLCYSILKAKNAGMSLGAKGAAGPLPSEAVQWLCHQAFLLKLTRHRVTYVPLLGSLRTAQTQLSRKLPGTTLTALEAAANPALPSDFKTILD

Row | SMILES | cytotoxicity for the non-tumor cell lines compared with tumor cell lines ([1]; fibroblasts of the 3T3 and MCR 5 lines) | cross-resistance to the indicated cytostatics ([1]; resistant subclones versus native cell lines) | inhibition at 100 µg/mL (topoisomerase I; at 100 μg/ml, 160 ng cell nucleus extract, pBR322 plasmid DNA) | concentration required for topoisomerase I inhibition as multiple of the IC50 of tumor cell growth (topoisomerase I) | effect on cell cycle (BrdU uptake) [2] | induction of DNA double-strand breaks (H460 WT cells) | induction of DNA double-strand breaks (HT29 WT) | inhibition of Tag polymerase (TSR8 template amplification) (DNA polymerase) | inhibition of human telomerase (human telomerase) | phosphorylation of the ERK1/2 protein (ERK1/2 protein) | cytotoxicity on coincubation with a specific ERK1/2 inhibitor (MAP kinase inhibitor) (HCT8 WT cells)
1 | CC(C)=CCC1=C(O)[C@]2(C(=O)c3ccccc3)C(=O)[C@@](CC=C(C)C)(CC(CC=C(C)C)C2(C)C)C1=O (stereo partly drawn) [Substance (I), 1-Benzoyl-8,8-dimethyl-2-hydroxy-3,5,7-tris-(3-methyl-2-butenyl)bicyclo[3.3.1]non-2-ene-4,9-dione] | considerably less | no cross-resistance | 100% | 20 times | inhibition of the synthesis phase | significant amounts of double-strand breaks | substantial amounts of double-strand breaks | does not lead to a significant inhibition | Complete inhibition | dose-dependent phosphorylation | pronounced synergism
2 | CC[C@@]1(O)C(=O)OCc2c1cc1n(c2=O)Cc2cc3c(CN(C)C)c(O)ccc3nc2-1 [topotecan, reference compound] |  |  |  | 1000 times |  |  |  |  |  |  | 
